Measured values: patent US20190151277A1, “USES OF BIOACTIVE LIPIDS” (NESTEC S.A., priority 2014, published 2019)

Assays:
Assay type in all cases: cell-based
[1] = test system: human islets; test: Acute insulin secretion assay with human islets from a lean non-diabetic donor; conditions: 2 mM and 20 mM glucose, 15-deoxy-Δ12,14-PGJ2-2-G at 250 μM
Description: Insulin secretion assay was performed in low glucose (2 mM) and high glucose (20 mM) conditions with human islets from a lean non-diabetic donor. […] Both bioactive lipids improved glucose stimulated insulin release acutely. The results are expressed as ng secreted insulin per 10 islets.

[2] = test system: human H716 cells; test: GLP-1 secretion assay in human H716 cells; conditions: 0.23 nM to 2.3 nM
Description: GLP-1 secretion assay was performed using human H716 cells in the presence of various concentration of the bioactive lipid from 0.23 nM to 2.3 nM.

[3] = test system: human islets; test: Glucose stimulated insulin release in human islets after cytokine-induced dysfunction; conditions: human islets of three donors, 50 μM 72 hours, cytokine mix last 48 hours
Description: During the last 48 hours, the cytokine mix was added (IL1beta 10 ng/ml, TNF alpha 25 ng/ml and INFgamma 10 ng/ml). Glucose stimulated insulin release was measured in low glucose (2 mM) and high glucose (20 mM) conditions. The bioactive lipid was able to improve glucose stimulated insulin release after cytokine-induced dysfunction.

[4] = test system: human islets; test: Beta cell function and incretin response in human islets from donors; conditions: lean type 2 diabetic and non-diabetic obese donors, 50 μM, 72 hours
Description: Glucose stimulated insulin release was measured in low glucose (2 mM), high glucose (20 mM) and high glucose (20 mM)+0.1 uM Exendin4

[5] = Acute glucose stimulated insulin release normalized to total protein content; conditions: 2 mM and 20 mM glucose, 470 μM, 2.3 nM, 230 nM bioactive lipid
Description: Glucose stimulated insulin release was measured in low glucose (2 mM) and high glucose (20 mM) in the presence of various concentrations (470 μM, 2.3 nM, 230 nM) of the bioactive lipid. The bioactive lipid improved glucose stimulated insulin release particularly at concentrations from 2.5 nM to 250 nM. The result are presented as insulin release normalized to total protein content.

[6] = test system: mouse islets; test: GSIS in mouse islets after 72 hours treatment; conditions: 72 hours at 50 μM, 2 mM and 20 mM glucose
Description: (§1) After PGD2G treatment, glucose stimulated insulin release was measured in low glucose (2 mM) and high glucose (20 mM) conditions in KRB solution. The insulin release is expressed as released from the total content of insulin in Ins1E cells and mouse islets.

[7] = test system: Ins1E cells; test: GSIS in Ins1E cells after 72 hours treatment; conditions: 72 hours at 50 μM, 2 mM and 20 mM glucose
Description: as §1

Compound | insulin secretion (ng secreted insulin per 10 islets) [1] | GLP1 release normalized to total protein content [2] | glucose stimulated insulin release after cytokine-induced dysfunction [3] | beta cell function (glucose stimulated insulin release) [4] | incretin response (20 mM glucose + 0.1 uM Exendin4) [4] | insulin release normalized to total protein content [5] | glucose stimulated insulin release (of total insulin content) [6] | glucose stimulated insulin release (of total insulin content) [7]
CCCCC/C=C/C=C1/C(=O)C=C[C@@H]1C/C=C\CCCC(=O)OC(CO)CO [15-deoxy-Δ12,14-PGJ2-2-G, 11-oxo-5Z,9,12E,4E-prostatetraenoic acid-2-glycerol ester] | increased insulin secretion both with and without the presence of a white adipose tissue (WAT) fraction |  |  |  |  |  |  | 
CCCCC[C@H](O)/C=C/[C@H]1C(=O)C[C@H](O)[C@@H]1C/C=C\CCCC(=O)OCC(O)CO (stereo partly drawn) [PGD2G, 9a, 15S-dihydroxy-11-oxo-5Z,13E-prostadienoic acid 1-glyceryl ester] | also increased insulin secretion compared to control tissues | increased GLP1 secretion | protected human islets against cytokine induced dysfunction | improved beta cell function | improved | acutely stimulated insulin secretion upon stimulation with glucose | increased insulin secretion | increased insulin secretion
